The values below come from patent US9695155B2, “Herbicidal substituted pyrimidinyloxy benzene compounds” (E. I. DU PONT DE NEMOURS AND COMPANY, priority 2013, dated 2017).

Assay [1] has as its system kochia. Description: Test A postemergence. The class given is in vivo, Kochia scoparia. In a few lines:
(§1)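 Visual 0–100 rating (100 = complete control) taken about 10 d post-treatment relative to untreated checks. Preemergence: directed soil spray on sown loam/sand pots. Postemergence: seedlings 2–10 cm, 1–2 leaf. Non-phytotoxic solvent formulation with surfactant.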

Assay [2] concerns Italian ryegrass. Description: Test A postemergence. Format: in vivo, Lolium multiflorum. In a few lines: as §1
Assay [3] relates to kochia. Description: Test A preemergence. The class given is in vivo, Kochia scoparia. A digest of the protocol: as §1
The test system of assay [4] is hairy beggarticks. Nature of the assay: Test E preemergence. The class given is in vivo, Bidens pilosa. To be noted: preemergence, scale 0 to 100 (0 no effect, 100 complete control). The text has this:
(§2) Seeds of plant species selected from corn (Zea mays), soybean (Glycine max), velvetleaf (Abutilon theophrasti), lambsquarters (Chenopodium album), wild poinsettia (Euphorbia heterophylla), palmer pigweed (Amaranthus palmeri), waterhemp (common waterhemp, Amaranthus rudis), surinam grass (Brachiaria decumbens), large (Lg) crabgrass (Digitaria sanguinalis), Brazilian crabgrass (Digitaria horizontalis), fall panicum (Panicum dichotomiflorum), giant foxtail (Setaria faberii), green foxtail (Setaria viridis), goosegrass (Eleusine indica), johnsongrass (Sorghum halepense), ragweed (common ragweed, Ambrosia elatior), barnyardgrass (Echinochloa crus-galli), sandbur (southern sandbur, Cenchrus echinatus), arrowleaf sida (Sida rhombifolia), Italian ryegrass (Lolium multiflorum), dayflower (Virginia (VA) dayflower, Commelina virginica), field bindweed (Convolvulus arvensis), morningglory (Ipomoea coccinea), nightshade (eastern black nightshade, Solanum ptycanthum), kochia (Kochia scoparia), yellow nutsedge (Cyperus esculentus), cocklebur (common cocklebur, Xanthium strumarium), smartweed (ladysthumb smartweed, and hairy beggarticks (Bidens pilosa), were planted into a silt loam soil and treated preemergence with test chemicals formulated in a non-phytotoxic solvent mixture which included a surfactant.
(§3) At the same time, plants from these crop and weed species and also horseweed (Canada horseweed, Conyza canadensis), waterhemp_RES1, (ALS & Triazine resistant common waterhemp, Amaranthus rudis), and waterhemp_RES2, (ALS & HPPD resistant common waterhemp, Amaranthus rudis) were planted in pots containing Redi-Earth® planting medium (Scotts Company, 14111 Scottslawn Road, Marysville, Ohio 43041) comprising spaghnum peat moss, vermiculite, wetting agent and starter nutrients were treated with postemergence applications of test chemicals formulated in the same manner. Plants ranged in height from 2 to 18 cm for postemergence treatments (1- to 4-leaf stage). Treated plants and controls were maintained in a greenhouse for 14 to 21 days, after which time all species were compared to controls and visually evaluated. Plant response ratings, summarized in Table E, are based on a scale of 0 to 100 where 0 is no effect and 100 is complete control. A dash (-) response means no test result.

Assay [5] deals with field bindweed. Nature of the assay: Test E preemergence. The class given is in vivo, Convolvulus arvensis. As to conditions: scale 0 to 100 (0 no effect, 100 complete control).
Excerpt: as §2, §3

Assay [6] relates to giant foxtail. Description: Test E preemergence. The class given is in vivo, Setaria faberii. As to conditions: scale 0 to 100 (0 no effect, 100 complete control).
Excerpt: as §2, §3

In assay [7] the test system is nightshade. Nature of the assay: Test E preemergence. Format: in vivo, Solanum ptycanthum. As to conditions: scale 0 to 100 (0 no effect, 100 complete control).
Excerpt: as §2, §3

The subject of assay [8] is waterhemp. Nature of the assay: Test E preemergence. Format: in vivo, Amaranthus rudis. As to conditions: scale 0 to 100 (0 no effect, 100 complete control).
Excerpt: as §2, §3

Assay [9] relates to surinam grass. Description: Test E preemergence. The class given is in vivo, Brachiaria decumbens. As to conditions: scale 0 to 100 (0 no effect, 100 complete control).
Excerpt: as §2, §3

[10] abbreviates: 1000 g ai/ha, 0 to 100 scale, 0 no effect, 100 complete control.
The mark [11] stands for this setting: 1000 g ai/ha, 0 to 100 scale, 0 no effect, 100 complete control, approx. 10 days.
Where [12] appears, read: 125 g ai/ha, 0 to 100 scale where 0 is no effect and 100 is complete control.
Setting [13] is: 500 g ai/ha, 0 to 100 scale where 0 is no effect and 100 is complete control.
Setting [14] is: 31 g ai/ha, 0 to 100 scale, 0 no effect, 100 complete control.
Where [15] appears, read: 125 g ai/ha, 0 to 100 scale, 0 no effect, 100 complete control.
Setting [16] is: 31 g ai/ha, 0 to 100 scale where 0 is no effect and 100 is complete control, visual, approximately 10 days.
[17] abbreviates: 500 g ai/ha, 0 to 100 scale, 0 no effect, 100 complete control, approx. 10 days.

Consider `FCc1cn(-c2c(F)cccc2Oc2ncc(Cl)cn2)nn1` [Compound 154], for which the “Plant response rating, Kochia” value in assay [1] (setting [10]) was 100. For the same compound, the “Plant response rating, Ryegrass, Italian” value in assay [2] (setting [10]) was 90. For the same compound, the “Kochia plant response rating” value in assay [3] (setting [11]) is on record as 100.

Consider `Cc1cnc(Oc2cccc(C#N)c2-n2cc(I)cn2)nc1` [Compound 136], for which the figures for the “Kochia plant response rating” value in assay [1] (setting [12]) and in [3] (setting [13]) were 70 and 100, respectively. The results for the “Plant response rating, Kochia” value in assay [1] (setting [13]) and in assay [3] (setting [12]) were 100 and 90, respectively. Moreover, in assay [2] (setting [12]), the “Ryegrass, Italian plant response rating” value was found to be 30. Further, the “Plant response rating, Ryegrass, Italian” value in assay [2] (setting [13]) is given as 90.

For `Fc1cccc(Oc2ncc(Cl)cn2)c1-n1cc(OCC(F)(F)F)cn1` [Compound 270], the “Plant response rating, Kochia” value in [1] (setting [14]) worked out at 60; in assay [1] (setting [15]), 70; in [3] (setting [16]) it was 80. Moreover, the figures for the “Plant response rating, Ryegrass, Italian” value in assay [2] (setting [14]) and in assay [2] (setting [15]) were 0 and 30, respectively. Besides, the “Kochia plant response rating (0 to 100 scale)” value in assay [3] (125 g ai/ha) stood at 100.

`FC(F)c1cccc(Oc2ncc(Cl)cn2)c1-n1cc(Br)cn1` [Compound 194, 2-[2-(4-bromo-1H-pyrazol-1-yl)-3-(difluoromethyl)phenoxy]-5-chloropyrimidine]: the “Beggarticks plant response rating” value in assay [4] (31 g ai/ha) and in [4] (62 g ai/ha) was 0 in each case. For the same compound, the “Field Bindweed plant response rating” value in [5] (31 g ai/ha) turned out to be 0; in assay [5] (62 g ai/ha), 40. In addition, the “Foxtail, Giant plant response rating” value in assay [6] (31 g ai/ha) turned out to be 25; in assay [6] (62 g ai/ha), 75. The “Nightshade plant response rating” value in assay [7] (31 g ai/ha) and in assay [7] (62 g ai/ha) was 95 in each case. The “Waterhemp plant response rating” value is on record as 98 in assay [8] (31 g ai/ha) and 100 in [8] (62 g ai/ha). Also, the “Surinam Grass plant response rating” value in assay [9] (31 g ai/ha) and in assay [9] (62 g ai/ha) was 0 in each case.

In the case of `N#Cc1cccc(Oc2ncc(Cl)cn2)c1-n1cnc(C(F)(F)F)c1` [Compound 252, 3-[(5-chloro-2-pyrimidinyl)oxy]-2-[4-(trifluoromethyl)-1H-imidazol-1-yl]benzonitrile], the “Plant response rating, Kochia” value is 70 in assay [1] (setting [14]), 100 in assay [1] (setting [15]), 100 in [1] (setting [13]) and 80 in assay [3] (setting [16]). For the same compound, the “Plant response rating, Ryegrass, Italian” value in assay [2] (setting [14]) amounted to 0; in [2] (setting [15]), 40; in [2] (setting [13]), 70. The “Kochia plant response rating (0 to 100 scale)” value in [3] (125 g ai/ha) worked out at 100. Further, the “Kochia plant response rating” value in [3] (setting [13]) is 100.

As for `FCc1cccc(Oc2ncc(Br)cn2)c1-n1cc(C(F)(F)F)cn1` [Compound 120], the figures for the “Plant response rating, Kochia” value in assay [1] (setting [14]), in assay [1] (setting [12]) and in assay [3] (setting [12]) were 60, 90 and 90, respectively. The “Plant response rating, Ryegrass, Italian” value in assay [2] (setting [14]) is reported as 0. Further, the “Kochia plant response rating (0 to 100 scale)” value in assay [3] (31 g ai/ha) is 20.

With `FC(F)(F)Sc1cnn(-c2ccccc2Oc2ncc(Cl)cn2)c1` [Compound 132, 5-chloro-2-[2-[4-(trifluoromethylthio)-1H-pyrazol-1-yl]phenoxy]pyrimidine], the “Kochia plant response rating” value in assay [1] (setting [12]) is reported as 90; in assay [3] (setting [13]), 100. In addition, the “Plant response rating, Kochia” value in assay [1] (setting [13]) and in assay [3] (setting [12]) was 100 each time. For the same compound, in [2] (setting [12]), the “Ryegrass, Italian plant response rating” value came to 10. For the same compound, the “Plant response rating, Ryegrass, Italian” value in assay [2] (setting [13]) worked out at 60.

For the compound `Clc1cnc(Oc2cccc(Br)c2-n2cc(Br)nn2)nc1` [Compound 129], the “Kochia plant response rating” value in [1] (setting [12]) and in [3] (setting [13]) was 100 in each case. Further, the “Plant response rating, Kochia” value in assay [1] (setting [13]) and in assay [3] (setting [12]) was 100 each time. For the same compound, in assay [2] (setting [12]), the “Ryegrass, Italian plant response rating” value came to 50. Also, the “Plant response rating, Ryegrass, Italian” value in [2] (setting [13]) is on record as 90.

For `FCc1cccc(Oc2ncc(Cl)cn2)c1-n1cc(Br)cn1` [Compound 83], the “Plant response rating, Kochia” value in assay [1] (setting [12]), in [1] (setting [13]) and in assay [3] (setting [12]) was 100 each time. In addition, the “Plant response rating, Ryegrass, Italian” value in [2] (setting [12]) stood at 50; in [2] (setting [13]) it was 80. The “Kochia plant response rating” value in assay [3] (setting [17]) stood at 100.

Turning to `CCOc1cn(-c2c(Br)cccc2Oc2ncc(Cl)cn2)nn1` [Compound 84], the “Plant response rating, Kochia” value in [1] (setting [12]), in [1] (setting [13]) and in assay [3] (setting [12]) was 100 in each case. Moreover, the “Plant response rating, Ryegrass, Italian” value in assay [2] (setting [12]) came out at 50; in assay [2] (setting [13]), 80. Besides, the “Kochia plant response rating” value in assay [3] (setting [17]) is 100.

Regarding `FCc1cccc(Oc2ncc(F)cn2)c1-n1cc(C(F)(F)F)cn1` [Compound 118], the “Plant response rating, Kochia” value is 60 in assay [1] (setting [14]), 100 in [1] (setting [12]) and 100 in [3] (setting [12]). Moreover, in [2] (setting [14]), the “Plant response rating, Ryegrass, Italian” value was determined as 20. In addition, the “Kochia plant response rating (0 to 100 scale)” value in assay [3] (31 g ai/ha) was 100.

In the case of `Fc1cccc(Oc2ncc(Cl)cn2)c1-n1cc(C2CC2)nn1` [Compound 155], the “Plant response rating, Kochia” value in assay [1] (setting [10]) is recorded as 100. Moreover, the “Plant response rating, Ryegrass, Italian” value in assay [2] (setting [10]) is 100. The “Kochia plant response rating” value in [3] (setting [11]) was 100.

`CCCOc1cnn(-c2c(C#N)cccc2Oc2ncc(Cl)cn2)c1` [Compound 150]: the “Kochia plant response rating” value amounted to 70 in [1] (setting [12]) and 100 in [3] (setting [13]). The “Plant response rating, Kochia” value in [1] (setting [13]) and in assay [3] (setting [12]) was 100 each time. In addition, the “Ryegrass, Italian plant response rating” value in [2] (setting [12]) was determined as 40. For the same compound, the “Plant response rating, Ryegrass, Italian” value in [2] (setting [13]) stood at 100.

As to `COc1cnn(-c2c(C#N)cccc2Oc2ncc(Cl)cn2)c1` [Compound 137], the “Kochia plant response rating” value in assay [1] (setting [12]) is 80; in assay [3] (setting [13]), 100. For the same compound, the “Plant response rating, Kochia” value came to 100 in assay [1] (setting [13]) and 90 in assay [3] (setting [12]). The “Ryegrass, Italian plant response rating” value in [2] (setting [12]) was 20. Further, the “Plant response rating, Ryegrass, Italian” value in [2] (setting [13]) is 80.
